{"source": "patent US6752989B1", "about": "“Tooth surface treatment agent” (3M ESPE AG, priority 1999, dated 2004)", "system": "fluorescence-marked casein", "test": "Proteolytic pepsin activity with fluorescence-marked casein after contact with ground bovine dentine", "type": "biochemical", "settings": "2.5 ml of 10 μg/ml solution, pH 2.0 buffer, on 1 g ground bovine dentine for 20 min; excitation 480 nm, emission 510 nm", "description": "2.5 ml of a pepsin solution (10 μg/ml) in a 20 mM disodium hydrogen phosphate buffer (pH 2.0) were added to 1 g of ground bovine dentine and allowed to remain there for 20 min. under agitation. Subsequently the mixture was centrifuged for 1 min. in a Heraeus Biofuge Pico at 10,000 rpm. 900 μl of the residue were mixed with 12 μg of fluorescence-marked casein (Molecular Probes company, Göttingen) in 100 μl 20 mM of disodium hydrogen phosphate buffer (pH 2.0). The presence of proteolytic pepsin activity is manifested in the increase in fluorescence with an excitation wave length of 480 nm and with an emission wave length of 510 nm.", "data": [{"substance": "pepsin", "values": [{"measurement": "proteolytic pepsin activity (increase in fluorescence)", "result": "no pepsin activity was determinable any more"}]}]}
